Source: patent US9738634B2, “Heterocyclic amide compound and herbicide” (SYNGENTA PARTICIPATIONS AG, priority 2013, dated 2017)

Experiments:
Assay type in all cases: in vivo
[1] = test system: barnyard grass; assay: Test Example 2: weedkilling efficacy, growth period weed treatment in the submerged state; A: barnyard grass
Procedure, shortened: (§1)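 Weeds treated at the 1-2 leaf stage by application of diluted emulsion onto floodwater (4 cm depth, alluvial soil) at specified g/ha. Grown in greenhouse at 25 to 30° C; herbicidal effect rated three weeks after treatment.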

[2] = test system: black-grass; assay: Test Example 3: weedkilling efficacy through soil treatment; H: black-grass; conditions: soil treatment
Procedure, shortened: (§2)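 Crop and weed responses were judged three weeks after a uniform surface spray of the water-diluted emulsion at the given g/ha rate. Seeds sat beneath about 1.5 cm of sterilized diluvial soil, and boxes stood in a greenhouse at 25 to 30° C.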

[3] = test system: chickweed; assay: Test Example 3: weedkilling efficacy through soil treatment; N: chickweed; conditions: soil treatment
Procedure, shortened: as §2

[4] = test system: crabgrass; assay: Test Example 3: weedkilling efficacy through soil treatment; D: crabgrass; conditions: soil treatment
Procedure, shortened: as §2

[5] = test system: common wind-grass; assay: Test Example 3: weedkilling efficacy through soil treatment; J: common wind-grass; conditions: soil treatment
Procedure, shortened: as §2

[6] = test system: bulrush; assay: Test Example 2: weedkilling efficacy, growth period weed treatment in the submerged state; B: bulrush
Procedure, shortened: as §1

[7] = test system: bulrush; assay: Test Example 1: weedkilling efficacy, preemergent weed treatment in the submerged state; B: bulrush
Procedure, shortened: (§3)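 Pre-emergence application onto floodwater (4 cm, alluvial soil) on the day of sowing, dose expressed as g/ha from diluted emulsion formulation. Weeds sown with 2.5-leaf transplanted rice as crop; plants held at 25–30 °C in greenhouse and scored against assessment criteria after 3 weeks.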

[8] = test system: wheat; assay: Test Example 3: soil treatment, effect on crop; e: wheat; conditions: soil treatment
Procedure, shortened: as §2

[9] = test system: green foxtail; assay: Test Example 3: weedkilling efficacy through soil treatment; E: green foxtail; conditions: soil treatment
Procedure, shortened: as §2

[10] = test system: oval-leafed pondweed; assay: Test Example 2: weedkilling efficacy, growth period weed treatment in the submerged state; C: oval-leafed pondweed
Procedure, shortened: as §1

[11] = test system: redroot pigweed; assay: Test Example 3: weedkilling efficacy through soil treatment; L: redroot pigweed; conditions: soil treatment
Procedure, shortened: as §2

[12] = test system: fig-leafed goosefoot; assay: Test Example 3: weedkilling efficacy through soil treatment; M: fig-leafed goosefoot; conditions: soil treatment, treatment dosage 320 g/ha
Procedure, shortened: as §2

[13] = test system: oval-leafed pondweed; assay: Test Example 1: weedkilling efficacy, preemergent weed treatment in the submerged state; C: oval-leafed pondweed
Procedure, shortened: as §3

[14] = test system: corn; assay: Test Example 3: soil treatment, effect on crop; c: corn; conditions: soil treatment
Procedure, shortened: as §2

[15] = test system: rapeseed; assay: Test Example 3: soil treatment, effect on crop; g: rapeseed; conditions: soil treatment
Procedure, shortened: as §2

[16] = test system: catchweed; assay: Test Example 3: weedkilling efficacy through soil treatment; O: catchweed; conditions: soil treatment
Procedure, shortened: as §2

[17] = test system: wild oat; assay: Test Example 3: weedkilling efficacy through soil treatment; G: wild oat; conditions: soil treatment
Procedure, shortened: as §2

[18] = test system: soybean; assay: Test Example 3: soil treatment, effect on crop; d: soybean; conditions: soil treatment
Procedure, shortened: as §2

[19] = test system: Italian ryegrass; assay: Test Example 3: weedkilling efficacy through soil treatment; I: Italian ryegrass; conditions: soil treatment
Procedure, shortened: as §2

[20] = test system: barnyard grass; assay: Test Example 1: weedkilling efficacy, preemergent weed treatment in the submerged state; A: barnyard grass
Procedure, shortened: as §3

[21] = test system: Indian mallow; assay: Test Example 3: weedkilling efficacy through soil treatment; K: Indian mallow; conditions: soil treatment
Procedure, shortened: as §2

[22] = test system: beet; assay: Test Example 3: soil treatment, effect on crop; f: beet; conditions: soil treatment
Procedure, shortened: as §2

[23] = test system: transplanted rice; assay: Test Example 1: preemergent weed treatment in the submerged state, effect on crop; a: transplanted rice
Procedure, shortened: as §3

[24] = test system: directly sown rice; assay: Test Example 3: soil treatment, effect on crop; b: directly sown rice; conditions: soil treatment
Procedure, shortened: as §2

[25] = test system: barnyard grass; assay: Test Example 3: weedkilling efficacy through soil treatment; F: barnyard grass; conditions: soil treatment
Procedure, shortened: as §2

[26] = test system: birds-eye speedwell; assay: Test Example 3: weedkilling efficacy through soil treatment; p: birds-eye speedwell; conditions: soil treatment, treatment dosage 315 g/ha
Procedure, shortened: as §2

CC(C)(C(=O)Nc1cc(Cl)cc(Oc2ccccc2)n1)N1COCN(c2ccccc2)C1=O [A-2-35]
A (barnyard grass) weedkilling efficacy grade ([1]; treatment dosage 320 g/ha): 4 (weed kill ratio 70% or more, less than 90%) | H: black-grass, weedkilling efficacy grade ([2]; treatment dosage 320 g/ha): 3 (weed kill ratio 40% or more, less than 70%) | N: chickweed, weedkilling efficacy grade ([3]; treatment dosage 320 g/ha): 0 (weed kill ratio 5% or less (practically no effect)) | D: crabgrass, weedkilling efficacy grade ([4]; treatment dosage 320 g/ha): 4 (weed kill ratio 70% or more, less than 90%) | J: common wind-grass, weedkilling efficacy grade ([5]; treatment dosage 320 g/ha): 4 (weed kill ratio 70% or more, less than 90%) | B (bulrush) weedkilling efficacy grade ([6]; treatment dosage 320 g/ha): 4 (weed kill ratio 70% or more, less than 90%) | B: bulrush, weed kill grade ([7]; treatment dosage 320 g/ha): 5 (weed kill ratio 90% or more, (practically complete withering)) | e: wheat, effect on crop grade ([8]; treatment dosage 320 g/ha): 0 (weed kill ratio 5% or less (practically no effect)) | E: green foxtail, weedkilling efficacy grade ([9]; treatment dosage 320 g/ha): 3 (weed kill ratio 40% or more, less than 70%) | C (oval-leafed pondweed) weedkilling efficacy grade ([10]; treatment dosage 320 g/ha): 4 (weed kill ratio 70% or more, less than 90%) | L: redroot pigweed, weedkilling efficacy grade ([11]; treatment dosage 320 g/ha): 0 (weed kill ratio 5% or less (practically no effect)) | M: fig-leafed goosefoot, weedkilling efficacy grade [12]: 0 (weed kill ratio 5% or less (practically no effect)) | C: oval-leafed pondweed, weed kill grade ([13]; treatment dosage 320 g/ha): 5 (weed kill ratio 90% or more, (practically complete withering)) | c: corn, effect on crop grade ([14]; treatment dosage 320 g/ha): 0 (weed kill ratio 5% or less (practically no effect)) | g: rapeseed, effect on crop grade ([15]; treatment dosage 320 g/ha): 1 (weed kill ratio 5% or more, less than 20%) | O: catchweed, weedkilling efficacy grade ([16]; treatment dosage 320 g/ha): 0 (weed kill ratio 5% or less (practically no effect)) | G: wild oat, weedkilling efficacy grade ([17]; treatment dosage 320 g/ha): 0 (weed kill ratio 5% or less (practically no effect)) | d: soybean, effect on crop grade ([18]; treatment dosage 320 g/ha): 0 (weed kill ratio 5% or less (practically no effect)) | I: Italian ryegrass, weedkilling efficacy grade ([19]; treatment dosage 320 g/ha): 3 (weed kill ratio 40% or more, less than 70%) | A: barnyard grass, weed kill grade ([20]; treatment dosage 320 g/ha): 5 (weed kill ratio 90% or more, (practically complete withering)) | K: Indian mallow, weedkilling efficacy grade ([21]; treatment dosage 320 g/ha): 0 (weed kill ratio 5% or less (practically no effect)) | f: beet, effect on crop grade ([22]; treatment dosage 320 g/ha): 0 (weed kill ratio 5% or less (practically no effect)) | a: transplanted rice, effect on crop grade ([23]; treatment dosage 320 g/ha): 1 (weed kill ratio 5% or more, less than 20%) | b: directly sown rice, effect on crop grade ([24]; treatment dosage 320 g/ha): 0 (weed kill ratio 5% or less (practically no effect)) | F: barnyard grass, weedkilling efficacy grade ([25]; treatment dosage 320 g/ha): 3 (weed kill ratio 40% or more, less than 70%)

CC(C)(C(=O)Nc1cccc(CF)n1)N1COCN(c2ccccc2)C1=O [A-2-39]
A (barnyard grass) weedkilling efficacy grade ([1]; treatment dosage 315 g/ha): 4 (weed kill ratio 70% or more, less than 90%) | H: black-grass, weedkilling efficacy grade ([2]; treatment dosage 315 g/ha): 5 (weed kill ratio 90% or more, (practically complete withering)) | N: chickweed, weedkilling efficacy grade ([3]; treatment dosage 315 g/ha): 2 (weed kill ratio 20% or more, less than 40%) | D: crabgrass, weedkilling efficacy grade ([4]; treatment dosage 315 g/ha): 5 (weed kill ratio 90% or more, (practically complete withering)) | J: common wind-grass, weedkilling efficacy grade ([5]; treatment dosage 315 g/ha): 5 (weed kill ratio 90% or more, (practically complete withering)) | B (bulrush) weedkilling efficacy grade ([6]; treatment dosage 315 g/ha): 5 (weed kill ratio 90% or more, (practically complete withering)) | B: bulrush, weed kill grade ([7]; treatment dosage 315 g/ha): 5 (weed kill ratio 90% or more, (practically complete withering)) | e: wheat, effect on crop grade ([8]; treatment dosage 315 g/ha): 1 (weed kill ratio 5% or more, less than 20%) | E: green foxtail, weedkilling efficacy grade ([9]; treatment dosage 315 g/ha): 5 (weed kill ratio 90% or more, (practically complete withering)) | C (oval-leafed pondweed) weedkilling efficacy grade ([10]; treatment dosage 315 g/ha): 4 (weed kill ratio 70% or more, less than 90%) | L: redroot pigweed, weedkilling efficacy grade ([11]; treatment dosage 315 g/ha): 0 (weed kill ratio 5% or less (practically no effect)) | C: oval-leafed pondweed, weed kill grade ([13]; treatment dosage 315 g/ha): 5 (weed kill ratio 90% or more, (practically complete withering)) | c: corn, effect on crop grade ([14]; treatment dosage 315 g/ha): 0 (weed kill ratio 5% or less (practically no effect)) | g: rapeseed, effect on crop grade ([15]; treatment dosage 315 g/ha): 2 (weed kill ratio 20% or more, less than 40%) | O: catchweed, weedkilling efficacy grade ([16]; treatment dosage 315 g/ha): 5 (weed kill ratio 90% or more, (practically complete withering)) | G: wild oat, weedkilling efficacy grade ([17]; treatment dosage 315 g/ha): 4 (weed kill ratio 70% or more, less than 90%) | d: soybean, effect on crop grade ([18]; treatment dosage 315 g/ha): 0 (weed kill ratio 5% or less (practically no effect)) | I: Italian ryegrass, weedkilling efficacy grade ([19]; treatment dosage 315 g/ha): 5 (weed kill ratio 90% or more, (practically complete withering)) | A: barnyard grass, weed kill grade ([20]; treatment dosage 315 g/ha): 5 (weed kill ratio 90% or more, (practically complete withering)) | P: birds-eye speedwell, weedkilling efficacy grade [26]: 5 (weed kill ratio 90% or more, (practically complete withering)) | K: Indian mallow, weedkilling efficacy grade ([21]; treatment dosage 315 g/ha): 0 (weed kill ratio 5% or less (practically no effect)) | f: beet, effect on crop grade ([22]; treatment dosage 315 g/ha): 3 (weed kill ratio 40% or more, less than 70%) | a: transplanted rice, effect on crop grade ([23]; treatment dosage 315 g/ha): 1 (weed kill ratio 5% or more, less than 20%) | b: directly sown rice, effect on crop grade ([24]; treatment dosage 315 g/ha): 4 (weed kill ratio 70% or more, less than 90%) | F: barnyard grass, weedkilling efficacy grade ([25]; treatment dosage 315 g/ha): 5 (weed kill ratio 90% or more, (practically complete withering))
